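Each compound was tested at five concentrations against cells in 96-well plates for 48 hours. GI50 marks 50% less growth.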 Active and inactive are the calls of the source. Rule as the data show it: active = GI50 up to about 1.1 µM and inactive = higher.
What was measured:
Assay in all cases: NCI-60 cell line screen, 48 h
DLD-1 = tested on: DLD-1
Malme-3M = tested on: Malme-3M
RPMI-8226 = tested on: RPMI-8226
SF-539 = tested on: SF-539
SNB-19 = tested on: SNB-19
IGROV-1 = tested on: IGROV-1
SK-MEL-5 = tested on: SK-MEL-5
TK-10 = tested on: TK-10
RXF 393 = tested on: RXF 393
NCI-H226 = tested on: NCI-H226
SNB-75 = tested on: SNB-75
HCT-15 = tested on: HCT-15
HOP-62 = tested on: HOP-62
COLO 205 = tested on: COLO 205
NCI-H23 = tested on: NCI-H23
M19-MEL = tested on: M19-MEL
SW-620 = tested on: SW-620
NCI-H460 = tested on: NCI-H460
EKVX = tested on: EKVX
LOX IMVI = tested on: LOX IMVI
CCRF-CEM = tested on: CCRF-CEM
U-251 = tested on: U-251
KM-20L2 = tested on: KM-20L2
A549 = tested on: A549
SK-MEL-28 = tested on: SK-MEL-28
MOLT-4 = tested on: MOLT-4
LXFL 529 = tested on: LXFL 529
SN12C = tested on: SN12C
OVCAR-4 = tested on: OVCAR-4
OVCAR-5 = tested on: OVCAR-5
XF498 = tested on: XF498
A498 = tested on: A498
KM12 = tested on: KM12
SK-OV-3 = tested on: SK-OV-3
HT-29 = tested on: HT-29
K562 = tested on: K562
UO-31 = tested on: UO-31
OVCAR-8 = tested on: OVCAR-8
SF-268 = tested on: SF-268
HOP-18 = tested on: HOP-18
SK-MEL-2 = tested on: SK-MEL-2
CAKI-1 = tested on: CAKI-1
DMS-114 = tested on: DMS-114
HCC 2998 = tested on: HCC 2998
SF-295 = tested on: SF-295
OVCAR-3 = tested on: OVCAR-3
UACC-62 = tested on: UACC-62
DMS-273 = tested on: DMS-273
786-0 = tested on: 786-0
HL-60 = tested on: HL-60
M14 = tested on: M14
UACC-257 = tested on: UACC-257
ACHN = tested on: ACHN
NCI-H522 = tested on: NCI-H522
HOP-92 = tested on: HOP-92
SR = tested on: SR
HCT-116 = tested on: HCT-116
SNB-78 = tested on: SNB-78

## O=C(CCn1[nH]c(=O)c(Cl)c(Cl)c1=O)NO
DLD-1
  GI50: > 100 µM (inactive)
Malme-3M
  GI50: > 100 µM (inactive)
RPMI-8226
  GI50: > 100 µM (inactive)
SF-539
  GI50: > 100 µM (inactive)
SNB-19
  GI50: > 100 µM (inactive)
IGROV-1
  GI50: > 100 µM (inactive)
SK-MEL-5
  GI50: > 100 µM (inactive)
TK-10
  GI50: > 100 µM (inactive)
RXF 393
  GI50: > 100 µM (inactive)
NCI-H226
  GI50: > 100 µM (inactive)
SNB-75
  GI50: > 100 µM (inactive)
HCT-15
  GI50: > 100 µM
HOP-62
  GI50: > 100 µM (inactive)
COLO 205
  GI50: > 100 µM (inactive)
NCI-H23
  GI50: > 100 µM (inactive)
M19-MEL
  GI50: > 100 µM (inactive)
SW-620
  GI50: > 100 µM (inactive)
NCI-H460
  GI50: > 100 µM (inactive)
EKVX
  GI50: > 100 µM (inactive)
LOX IMVI
  GI50: > 100 µM (inactive)
CCRF-CEM
  GI50: > 100 µM (inactive)
U-251
  GI50: > 100 µM (inactive)
KM-20L2
  GI50: > 100 µM (inactive)
A549
  GI50: > 100 µM (inactive)
SK-MEL-28
  GI50: > 100 µM (inactive)
MOLT-4
  GI50: > 100 µM (inactive)
LXFL 529
  GI50: > 100 µM (inactive)
SN12C
  GI50: > 100 µM (inactive)
OVCAR-4
  GI50: > 100 µM (inactive)
OVCAR-5
  GI50: > 100 µM (inactive)
XF498
  GI50: > 100 µM (inactive)
A498
  GI50: > 100 µM (inactive)
KM12
  GI50: > 100 µM (inactive)
SK-OV-3
  GI50: > 100 µM (inactive)
HT-29
  GI50: > 100 µM (inactive)
K562
  GI50: > 100 µM (inactive)
UO-31
  GI50: > 100 µM (inactive)
OVCAR-8
  GI50: > 100 µM (inactive)
SF-268
  GI50: > 100 µM (inactive)
HOP-18
  GI50: > 100 µM (inactive)
SK-MEL-2
  GI50: > 100 µM (inactive)
CAKI-1
  GI50: > 100 µM (inactive)
DMS-114
  GI50: > 100 µM (inactive)
HCC 2998
  GI50: > 100 µM (inactive)
SF-295
  GI50: > 100 µM (inactive)
OVCAR-3
  GI50: > 100 µM (inactive)
UACC-62
  GI50: > 100 µM (inactive)
DMS-273
  GI50: > 100 µM (inactive)
786-0
  GI50: > 100 µM (inactive)
HL-60
  GI50: > 100 µM (inactive)
M14
  GI50: > 100 µM (inactive)
UACC-257
  GI50: > 100 µM (inactive)
ACHN
  GI50: > 100 µM (inactive)
NCI-H522
  GI50: > 100 µM (inactive)

## CC(C)c1cc2c(O)c(c1)Cc1cc(C(C)C)cc(c1O)Cc1cc(C(C)C)cc(c1O)Cc1cc(C(C)C)cc(c1O)C2
DLD-1
  GI50: > 100 µM (inactive)
Malme-3M
  GI50: > 100 µM (inactive)
RPMI-8226
  GI50: > 100 µM (inactive)
SF-539
  GI50: > 100 µM (inactive)
SNB-19
  GI50: > 100 µM (inactive)
IGROV-1
  GI50: > 100 µM (inactive)
SK-MEL-5
  GI50: > 100 µM (inactive)
TK-10
  GI50: > 100 µM (inactive)
RXF 393
  GI50: > 100 µM (inactive)
NCI-H226
  GI50: > 100 µM (inactive)
SNB-75
  GI50: > 100 µM (inactive)
HCT-15
  GI50: > 100 µM
HOP-62
  GI50: > 100 µM (inactive)
COLO 205
  GI50: > 100 µM (inactive)
NCI-H23
  GI50: > 100 µM (inactive)
M19-MEL
  GI50: > 100 µM (inactive)
SW-620
  GI50: > 100 µM (inactive)
NCI-H460
  GI50: > 100 µM (inactive)
HOP-92
  GI50: > 100 µM (inactive)
EKVX
  GI50: > 100 µM (inactive)
LOX IMVI
  GI50: > 100 µM (inactive)
CCRF-CEM
  GI50: > 100 µM (inactive)
U-251
  GI50: > 100 µM (inactive)
KM-20L2
  GI50: > 100 µM (inactive)
A549
  GI50: > 100 µM (inactive)
MOLT-4
  GI50: > 100 µM (inactive)
OVCAR-4
  GI50: > 100 µM (inactive)
OVCAR-5
  GI50: > 100 µM (inactive)
XF498
  GI50: > 100 µM (inactive)
A498
  GI50: > 100 µM (inactive)
KM12
  GI50: > 100 µM (inactive)
SK-OV-3
  GI50: > 100 µM (inactive)
HT-29
  GI50: > 100 µM (inactive)
SR
  GI50: > 100 µM (inactive)
K562
  GI50: > 100 µM (inactive)
UO-31
  GI50: > 100 µM (inactive)
OVCAR-8
  GI50: > 100 µM (inactive)
SF-268
  GI50: > 100 µM (inactive)
HOP-18
  GI50: > 100 µM (inactive)
SK-MEL-2
  GI50: > 100 µM (inactive)
CAKI-1
  GI50: > 100 µM (inactive)
DMS-114
  GI50: > 100 µM (inactive)
SF-295
  GI50: > 100 µM (inactive)
OVCAR-3
  GI50: > 100 µM (inactive)
HCT-116
  GI50: > 100 µM (inactive)
UACC-62
  GI50: > 100 µM (inactive)
DMS-273
  GI50: > 100 µM (inactive)
786-0
  GI50: > 100 µM (inactive)
HL-60
  GI50: > 100 µM (inactive)
SNB-78
  GI50: > 100 µM (inactive)
UACC-257
  GI50: > 100 µM (inactive)
NCI-H522
  GI50: > 100 µM (inactive)

Source: ChEMBL document CHEMBL1201862, “PubChem BioAssay data set” (2004)
